The source of these data is patent US20080125453A1 (TIBER LABORATORIES, LLC, priority 2001, published 2008).

For series [1] the following is noted: background statement; cited from earlier work.
The format of series [2] is physicochemical. On the procedure: The salt of the active ingredient, corresponding to an amount of free base present in a final batch size of 1 kg was dissolved in 100 ml of purified water. 120 ml of purified water was placed in a 600 ml beaker and stirred. While stirring, 3 g of MAS was added in small portions to obtain a dispersion. The amount of MAS used is a part of the total amount of MAS to be used in the formulation. Once the MAS was dispersed, tannic acid was added to the mixture and stirred to form a uniform dispersion. Three different batches of the MAS/tannic acid dispersion in purified water were prepared for each active. In the three batches, the amount of tannic acid used in the batch may vary from an amount equal to that of the free base, to two time to three times that of the free base present in the initial salt solution.
The salt solution was then added in small portions, under light stirring, to the MAS/Tannic acid dispersion. After all of the salt solution was added, the volume was made up to 250 ml with purified water and stirring was continued for a period of 10 minutes.
The MAS was used in this step to serve as an adherent or a solid support for the tannic acid molecules to facilitate the conversion process.

The structures appear in SMILES notation. Structures can show the parent of a compound that is named as a salt.

As for `CNC[C@H](O)c1cccc(O)c1` [Phenylephrine hydrochloride], in series [1], the solubility in water entry is on record as “freely soluble”.
As for `COc1ccc(CN(CCN(C)C)c2ccccn2)cc1` [pyrilamine], the “precipitate formation on addition to MAS/tannic acid dispersion” value in series [2] (purified water, at all three concentrations of tannic acid (1x, 2x, 3x the free base)) is reported as “copious amounts of precipitate”.
As for `CNC[C@H](O)c1cccc(O)c1` [phenylephrine], the “solubility of the tannate salt in purified water” value in series [2] was “partial solubility”.
As to `COc1ccc(CN(CCN(C)C)c2ccccn2)cc1` [maleate salt, N-[(4-methoxyphenyl)methyl]-N′,N′-dimethyl- -N-2-pyridinyl-1,2-ethanediamine], in series [1], the solubility in water result is listed as “slightly soluble”.
For the compound `COc1ccc(CN(CCN(C)C)c2ccccn2)cc1` [Pyrilamine hydrochloride, N-[(4-methoxyphenyl)methyl]-N′,N′-dimethyl- -N-2-pyridinyl-1,2-ethanediamine], the solubility in water entry in series [1] is “freely soluble”.
